Data from US20260262643A1, “HERBICIDAL BENZOXAZINES” (FMC CORPORATION, priority 2022, published 2026).

Tests used:
kochia [1] = assay: Test C postemergence; type: in vivo, Bassia scoparia; settings: 10 days, 0 to 100 scale (0 no effect, 100 complete control)
How it was run: (§1)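 Seeds in loam–sand blend received preemergence directed soil spray of test chemicals in non-phytotoxic solvent with surfactant; postemergence treatment was applied at one- to two-leaf stage (2–10 cm). After 10 days in greenhouse, injury rated visually versus untreated controls, 0 (no effect) to 100 (complete control).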

blackgrass [2] = assay: Test C postemergence; type: in vivo, Alopecurus myosuroides; settings: 10 days, 0 to 100 scale (0 no effect, 100 complete control)
How it was run: as §1

soybean [3] = assay: Test C postemergence; type: in vivo, Glycine max; settings: 10 days, 0 to 100 scale (0 no effect, 100 complete control)
Excerpt: (§2) Seeds of plant species selected from barnyardgrass (Echinochloa crusgalli), blackgrass (Alopecurus myosuroides), corn (Zea mays), foxtail, giant (giant foxtail, Setaria faberi), green foxtail (Setaria viridis), goosegrass (Eleusine indica), kochia (Bassia scoparia), oat, wild (wild oat, Avena fatua), pigweed, palmer (palmer amaranth, palmer pigweed, Amaranthus palmeri), Pigweed, Redroot (redroot pigweed, Amaranthus retroflexus), ragweed (common ragweed, Ambrosia artemisiifolia), ryegrass, Italian ([…] ryegrass, Lolium multiflorum), soybean (Glycine max), and wheat (Triticum aestivum) were planted into a blend of loam soil and sand and treated preemergence with a directed soil spray using test chemicals formulated in a non-phytotoxic solvent mixture which included a surfactant. At the same time, plants selected from these crops and weed species and also galium (catchweed bedstraw, Galium aparine) and horseweed (Erigeron canadensis) were planted in pots containing the same blend of loam soil and sand and treated with postemergence applications of test chemicals formulated in the same manner. Plants ranged in height from 2 to 10 cm and were in the one- to two-leaf stage for the postemergence treatment. Treated plants and untreated controls were maintained in a greenhouse for 10 days, after which time all treated plants were compared to untreated controls and visually evaluated for injury. Plant response ratings, summarized in Table C, are based on a 0 to 100 scale where 0 is no effect and 100 is complete control. A dash (-) response means no test result.

kochia [4] = assay: Test C preemergence; type: in vivo, Bassia scoparia; settings: for Kochia plant response rating: 500 g ai/ha, preemergence, 0 to 100 scale (0 no effect, 100 complete control); for Plant response rating, Kochia: Preemergence, 125 g ai/ha, 0 to 100 scale, 0 no effect, 100 complete control
How it was run: as §1

oat, wild [5] = assay: Test C preemergence; type: in vivo, Avena fatua; settings: for Oat, Wild plant response rating: 500 g ai/ha, preemergence, 0 to 100 scale (0 no effect, 100 complete control); for Plant response rating, Oat, Wild: Preemergence, 125 g ai/ha, 0 to 100 scale, 0 no effect, 100 complete control
Excerpt: as §2

barnyardgrass [6] = assay: Test C postemergence; type: in vivo, Echinochloa crusgalli; settings: 10 days, 0 to 100 scale (0 no effect, 100 complete control)
How it was run: as §1

corn [7] = assay: Test C postemergence; type: in vivo, Zea mays; settings: 10 days, 0 to 100 scale (0 no effect, 100 complete control)
How it was run: as §1

wheat [8] = assay: Test C postemergence; type: in vivo, Triticum aestivum; settings: 10 days, 0 to 100 scale (0 no effect, 100 complete control)
Excerpt: as §2

pigweed, palmer [9] = assay: Test C postemergence; type: in vivo, Amaranthus palmeri; settings: 10 days, 0 to 100 scale (0 no effect, 100 complete control)
How it was run: as §1

ryegrass, Italian [10] = assay: Test C preemergence; type: in vivo, Lolium multiflorum; settings: for Ryegrass, Italian plant response rating: 500 g ai/ha, preemergence, 0 to 100 scale (0 no effect, 100 complete control); for Plant response rating, Ryegrass, Italian: Preemergence, 125 g ai/ha, 0 to 100 scale, 0 no effect, 100 complete control
How it was run: as §1

horseweed = assay: Test C postemergence; type: in vivo, Erigeron canadensis; settings: 10 days, 0 to 100 scale (0 no effect, 100 complete control)
How it was run: as §1

green foxtail [11] = assay: Test C postemergence; type: in vivo, Setaria viridis; settings: 10 days, 0 to 100 scale (0 no effect, 100 complete control)
How it was run: as §1

ragweed [12] = assay: Test C preemergence; type: in vivo, Ambrosia artemisiifolia; settings: for Ragweed plant response rating: 500 g ai/ha, preemergence, 0 to 100 scale (0 no effect, 100 complete control); for Plant response rating, Ragweed: Preemergence, 125 g ai/ha, 0 to 100 scale, 0 no effect, 100 complete control
How it was run: as §1

blackgrass [13] = assay: Test C preemergence; type: in vivo, Alopecurus myosuroides; settings: for Blackgrass plant response rating: 500 g ai/ha, preemergence, 0 to 100 scale (0 no effect, 100 complete control); for Plant response rating, Blackgrass: Preemergence, 125 g ai/ha, 0 to 100 scale, 0 no effect, 100 complete control
How it was run: as §1

corn [14] = assay: Test C preemergence; type: in vivo, Zea mays; settings: for Corn plant response rating: 500 g ai/ha, preemergence, 0 to 100 scale (0 no effect, 100 complete control); for Plant response rating, Corn: Preemergence, 125 g ai/ha, 0 to 100 scale, 0 no effect, 100 complete control
How it was run: as §1

galium = assay: Test C postemergence; type: in vivo, Galium aparine; settings: 10 days, 0 to 100 scale (0 no effect, 100 complete control)
How it was run: as §1

barnyardgrass [15] = assay: Test C preemergence; type: in vivo, Echinochloa crusgalli; settings: for Barnyardgrass plant response rating: 500 g ai/ha, preemergence, 0 to 100 scale (0 no effect, 100 complete control); for Plant response rating, Barnyardgrass: Preemergence, 125 g ai/ha, 0 to 100 scale, 0 no effect, 100 complete control
How it was run: as §1

oat, wild [16] = assay: Test C postemergence; type: in vivo, Avena fatua; settings: 10 days, 0 to 100 scale (0 no effect, 100 complete control)
Excerpt: as §2

wheat [17] = assay: Test C preemergence; type: in vivo, Triticum aestivum; settings: for Wheat plant response rating: 500 g ai/ha, preemergence, 0 to 100 scale (0 no effect, 100 complete control); for Plant response rating, Wheat: Preemergence, 125 g ai/ha, 0 to 100 scale, 0 no effect, 100 complete control
Excerpt: as §2

ryegrass, Italian [18] = assay: Test C postemergence; type: in vivo, Lolium multiflorum; settings: 10 days, 0 to 100 scale (0 no effect, 100 complete control)
How it was run: as §1

ragweed [19] = assay: Test C postemergence; type: in vivo, Ambrosia artemisiifolia; settings: 10 days, 0 to 100 scale (0 no effect, 100 complete control)
How it was run: as §1

pigweed, palmer [20] = assay: Test C preemergence; type: in vivo, Amaranthus palmeri; settings: for Pigweed, Palmer plant response rating: 500 g ai/ha, preemergence, 0 to 100 scale (0 no effect, 100 complete control); for Plant response rating, Pigweed, Palmer: Preemergence, 125 g ai/ha, 0 to 100 scale, 0 no effect, 100 complete control
How it was run: as §1

soybean [21] = assay: Test C preemergence; type: in vivo, Glycine max; settings: for Soybean plant response rating: 500 g ai/ha, preemergence, 0 to 100 scale (0 no effect, 100 complete control); for Plant response rating, Soybean: Preemergence, 125 g ai/ha, 0 to 100 scale, 0 no effect, 100 complete control
Excerpt: as §2

green foxtail [22] = assay: Test C preemergence; type: in vivo, Setaria viridis; settings: for Foxtail, Green plant response rating: 500 g ai/ha, preemergence, 0 to 100 scale (0 no effect, 100 complete control); for Plant response rating, Foxtail, Green: Preemergence, 125 g ai/ha, 0 to 100 scale, 0 no effect, 100 complete control
How it was run: as §1

CC(C)c1ncn(-c2ccc(OS(=O)(=O)C(F)(F)F)c(C(=O)N3C[C@H](C)Oc4c(Cl)cccc43)c2)n1 [Compound 339]
Plant response rating, Kochia (kochia [1]; 500 g ai/ha, postemergence): 60
Plant response rating, Kochia (kochia [1]; Postemergence, 125 g ai/ha): 30
Plant response rating, Blackgrass (blackgrass [2]; 500 g ai/ha, postemergence): 0
Plant response rating, Blackgrass (blackgrass [2]; Postemergence, 125 g ai/ha): 0
Plant response rating, Soybean (soybean [3]; 500 g ai/ha, postemergence): 20
Kochia plant response rating (kochia [4]): 50
Plant response rating, Kochia (kochia [4]): 0
Oat, Wild plant response rating (oat, wild [5]): 0
Plant response rating, Oat, Wild (oat, wild [5]): 0
Plant response rating, Barnyardgrass (barnyardgrass [6]; 500 g ai/ha, postemergence): 10
Plant response rating, Barnyardgrass (barnyardgrass [6]; Postemergence, 125 g ai/ha): 10
Plant response rating, Corn (corn [7]; 500 g ai/ha, postemergence): 0
Plant response rating, Corn (corn [7]; Postemergence, 125 g ai/ha): 0
Plant response rating, Wheat (wheat [8]; 500 g ai/ha, postemergence): 0
Plant response rating, Wheat (wheat [8]; Postemergence, 125 g ai/ha): 0
Plant response rating, Pigweed, Palmer (pigweed, palmer [9]; 500 g ai/ha, postemergence): 70
Plant response rating, Pigweed, Palmer (pigweed, palmer [9]; Postemergence, 125 g ai/ha): 50
Ryegrass, Italian plant response rating (ryegrass, Italian [10]): 80
Plant response rating, Ryegrass, Italian (ryegrass, Italian [10]): 20
Plant response rating, Horseweed (horseweed; 500 g ai/ha, postemergence): 10
Plant response rating, Horseweed (horseweed; Postemergence, 125 g ai/ha): 0
Plant response rating, Foxtail, Green (green foxtail [11]; 500 g ai/ha, postemergence): 10
Plant response rating, Foxtail, Green (green foxtail [11]; Postemergence, 125 g ai/ha): 0
Ragweed plant response rating (ragweed [12]): 0
Plant response rating, Ragweed (ragweed [12]): 0
Blackgrass plant response rating (blackgrass [13]): 0
Plant response rating, Blackgrass (blackgrass [13]): 0
Corn plant response rating (corn [14]): 0
Plant response rating, Corn (corn [14]): 0
Plant response rating, Galium (galium; 500 g ai/ha, postemergence): 50
Plant response rating, Galium (galium; Postemergence, 125 g ai/ha): 60
Barnyardgrass plant response rating (barnyardgrass [15]): 0
Plant response rating, Barnyardgrass (barnyardgrass [15]): 0
Plant response rating, Oat, Wild (oat, wild [16]; 500 g ai/ha, postemergence): 0
Plant response rating, Oat, Wild (oat, wild [16]; Postemergence, 125 g ai/ha): 0
Wheat plant response rating (wheat [17]): 0
Plant response rating, Wheat (wheat [17]): 0
Plant response rating, Ryegrass, Italian (ryegrass, Italian [18]; 500 g ai/ha, postemergence): 20
Plant response rating, Ryegrass, Italian (ryegrass, Italian [18]; Postemergence, 125 g ai/ha): 0
Plant response rating, Ragweed (ragweed [19]; 500 g ai/ha, postemergence): 10
Plant response rating, Ragweed (ragweed [19]; Postemergence, 125 g ai/ha): 0
Pigweed, Palmer plant response rating (pigweed, palmer [20]): 0
Plant response rating, Pigweed, Palmer (pigweed, palmer [20]): 0
Soybean plant response rating (soybean [21]): 0
Plant response rating, Soybean (soybean [21]): 0
Foxtail, Green plant response rating (green foxtail [22]): 0
Plant response rating, Foxtail, Green (green foxtail [22]): 0

CC(C)c1ncn(-c2ccc(S(C)(=O)=O)c(C(=O)N3C[C@H](C)Oc4c(Cl)cccc43)c2)n1 [Compound 393]
Plant response rating, Kochia (kochia [1]; 500 g ai/ha, postemergence): 90
Plant response rating, Kochia (kochia [1]; Postemergence, 125 g ai/ha): 70
Plant response rating, Blackgrass (blackgrass [2]; 500 g ai/ha, postemergence): 0
Plant response rating, Blackgrass (blackgrass [2]; Postemergence, 125 g ai/ha): 0
Plant response rating, Soybean (soybean [3]; 500 g ai/ha, postemergence): 100
Plant response rating, Soybean (soybean [3]; Postemergence, 125 g ai/ha): 70
Kochia plant response rating (kochia [4]): 90
Plant response rating, Kochia (kochia [4]): 80
Oat, Wild plant response rating (oat, wild [5]): 40
Plant response rating, Oat, Wild (oat, wild [5]): 0
Plant response rating, Barnyardgrass (barnyardgrass [6]; 500 g ai/ha, postemergence): 50
Plant response rating, Barnyardgrass (barnyardgrass [6]; Postemergence, 125 g ai/ha): 30
Plant response rating, Corn (corn [7]; 500 g ai/ha, postemergence): 50
Plant response rating, Corn (corn [7]; Postemergence, 125 g ai/ha): 20
Plant response rating, Wheat (wheat [8]; 500 g ai/ha, postemergence): 20
Plant response rating, Wheat (wheat [8]; Postemergence, 125 g ai/ha): 10
Plant response rating, Pigweed, Palmer (pigweed, palmer [9]; 500 g ai/ha, postemergence): 90
Plant response rating, Pigweed, Palmer (pigweed, palmer [9]; Postemergence, 125 g ai/ha): 60
Ryegrass, Italian plant response rating (ryegrass, Italian [10]): 90
Plant response rating, Ryegrass, Italian (ryegrass, Italian [10]): 0
Plant response rating, Horseweed (horseweed; 500 g ai/ha, postemergence): 20
Plant response rating, Horseweed (horseweed; Postemergence, 125 g ai/ha): 0
Plant response rating, Foxtail, Green (green foxtail [11]; 500 g ai/ha, postemergence): 70
Plant response rating, Foxtail, Green (green foxtail [11]; Postemergence, 125 g ai/ha): 10
Ragweed plant response rating (ragweed [12]): 0
Plant response rating, Ragweed (ragweed [12]): 0
Blackgrass plant response rating (blackgrass [13]): 20
Plant response rating, Blackgrass (blackgrass [13]): 20
Corn plant response rating (corn [14]): 20
Plant response rating, Corn (corn [14]): 0
Plant response rating, Galium (galium; 500 g ai/ha, postemergence): 100
Plant response rating, Galium (galium; Postemergence, 125 g ai/ha): 70
Barnyardgrass plant response rating (barnyardgrass [15]): 70
Plant response rating, Barnyardgrass (barnyardgrass [15]): 40
Plant response rating, Oat, Wild (oat, wild [16]; 500 g ai/ha, postemergence): 40
Plant response rating, Oat, Wild (oat, wild [16]; Postemergence, 125 g ai/ha): 0
Wheat plant response rating (wheat [17]): 30
Plant response rating, Wheat (wheat [17]): 0
Plant response rating, Ryegrass, Italian (ryegrass, Italian [18]; 500 g ai/ha, postemergence): 80
Plant response rating, Ryegrass, Italian (ryegrass, Italian [18]; Postemergence, 125 g ai/ha): 10
Plant response rating, Ragweed (ragweed [19]; 500 g ai/ha, postemergence): 70
Plant response rating, Ragweed (ragweed [19]; Postemergence, 125 g ai/ha): 60
Pigweed, Palmer plant response rating (pigweed, palmer [20]): 100
Plant response rating, Pigweed, Palmer (pigweed, palmer [20]): 80
Soybean plant response rating (soybean [21]): 40
Plant response rating, Soybean (soybean [21]): 20
Foxtail, Green plant response rating (green foxtail [22]): 100
Plant response rating, Foxtail, Green (green foxtail [22]): 80
